What is called IC50 is the midpoint of a concentration-inhibition curve. By inhibition is commonly meant the drop in the measured response relative to a control, in per cent.

In this assay the target is recombinant human SAE enzyme (Homo sapiens (Human), UniProt Q9UBT2). The assay can be described thus: SAE HTRF enzyme assay. The assay is classed as biochemical. Conditions: for inhibition at 0.111 µM: read-out: Percent Inhibition. Put shortly: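 Human SAE (0.11 nM) with 0.5 μM ATP, 0.125 μM Sumo-Flag and 0.01 μM Ubc9-GST in HEPES pH 7.5, 5 mM MgCl2, 250 μM GSH; 105 min at 24 °C. Stopped with EDTA; HTRF read after 2 h with Eu-anti-Flag and APC-anti-GST. Percent inhibition or IC50 reported.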

[1] abbreviates: SAE inhibition at compound concentration 0.111 μM.
Setting [2] is: SAE inhibition, class symbols, legend in nM.

Sequence of recombinant human SAE enzyme (Q9UBT2 whole entry): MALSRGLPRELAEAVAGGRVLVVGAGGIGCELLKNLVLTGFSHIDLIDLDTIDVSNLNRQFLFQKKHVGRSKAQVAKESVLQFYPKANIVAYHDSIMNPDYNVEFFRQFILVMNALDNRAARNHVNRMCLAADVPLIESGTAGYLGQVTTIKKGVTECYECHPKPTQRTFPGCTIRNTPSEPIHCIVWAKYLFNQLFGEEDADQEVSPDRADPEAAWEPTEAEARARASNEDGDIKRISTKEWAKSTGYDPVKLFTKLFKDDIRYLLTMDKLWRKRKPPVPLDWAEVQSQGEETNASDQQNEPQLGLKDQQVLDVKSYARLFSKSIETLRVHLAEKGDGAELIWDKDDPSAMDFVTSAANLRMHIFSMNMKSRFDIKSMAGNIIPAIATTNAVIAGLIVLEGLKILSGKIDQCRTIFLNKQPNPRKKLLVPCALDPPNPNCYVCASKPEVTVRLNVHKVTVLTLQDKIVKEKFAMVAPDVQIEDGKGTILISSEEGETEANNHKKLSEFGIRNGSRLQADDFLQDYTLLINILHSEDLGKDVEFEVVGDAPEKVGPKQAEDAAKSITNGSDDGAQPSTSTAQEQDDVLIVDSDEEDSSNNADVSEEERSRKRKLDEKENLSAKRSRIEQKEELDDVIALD
Sequence of recombinant human SAE enzyme (Q9UBE0 whole entry partner): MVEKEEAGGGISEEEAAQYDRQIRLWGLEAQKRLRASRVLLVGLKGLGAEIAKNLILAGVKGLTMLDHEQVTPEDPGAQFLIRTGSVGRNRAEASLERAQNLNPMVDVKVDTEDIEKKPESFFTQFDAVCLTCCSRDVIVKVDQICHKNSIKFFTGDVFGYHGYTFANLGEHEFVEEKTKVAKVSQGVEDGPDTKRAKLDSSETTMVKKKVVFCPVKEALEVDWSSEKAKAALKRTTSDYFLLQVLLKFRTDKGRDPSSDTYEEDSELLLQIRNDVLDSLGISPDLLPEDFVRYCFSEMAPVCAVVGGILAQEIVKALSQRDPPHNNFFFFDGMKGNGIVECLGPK

`NS(=O)(=O)OC[C@H]1C[C@@H](Nc2ncncc2C(=O)c2cc([C@@H]3OCc4ccc(Cl)cc43)c(Cl)s2)C[C@@H]1O` (single isomer, unassigned) [I-310b, [(1R,2S,4R)-4-{[5-({5-chloro-4-[(1R)-6-chloro-1,3-dihydro-2-benzofuran-1-yl]-2-thienyl}carbonyl)pyrimidin-4-yl]amino}-2-hydroxycyclopentyl]methyl sulfamate or [(1R,2S,4R)-4-{[5-({5-chloro-4-[(1S)-6-chloro-1,3-dihydro-2-benzofuran-1-yl]-2-thienyl}carbonyl)pyrimidin-4-yl]amino}-2-hydroxycyclopentyl]methyl sulfamate]: the “Percent Inhibition” value under setting [1] worked out at 98%. Also, under setting [2], the IC50 was below 10 nM.

As to `NS(=O)(=O)OC[C@H]1C[C@@H](Nc2ncncc2C(=O)c2cc(Cc3cccc(Cl)c3)c([C@@H]3CCCO3)s2)C[C@@H]1O` (single isomer, unassigned) [I-41a, [(1R,2S,4R)-4-{[5-({4-(3-chlorobenzyl)-5-[(2S)-tetrahydrofuran-2-yl]-2-thienyl}carbonyl)pyrimidin-4-yl]amino}-2-hydroxycyclopentyl]methyl sulfamate or [(1R,2S,4R)-4-{[5-({4-(3-chlorobenzyl)-5-[(2R)-tetrahydrofuran-2-yl]-2-thienyl}carbonyl)pyrimidin-4-yl]amino}-2-hydroxycyclopentyl]methyl sulfamate], the “Percent Inhibition” value (Concentration 0.111 μM) is given as 98. For the setting “class symbols A/B/C”, the IC50 was below 10 nM.

Consider `Cc1ccc2c(c1)[C@H](c1cc(C(=O)c3cncnc3N[C@@H]3C[C@H](COS(N)(=O)=O)[C@@H](O)C3)sc1C)OCC2` (mixture of isomers) [I-347, [(1R,2S,4R)-2-hydroxy-4-{[5-({5-methyl-4-[(1R)-7-methyl-3,4-dihydro-1H-isochromen-1-yl]-2-thienyl}carbonyl)pyrimidin-4-yl]amino}cyclopentyl]methyl sulfamate and [(1R,2S,4R)-2-hydroxy-4-{[5-({5-methyl-4-[(1S)-7-methyl-3,4-dihydro-1H-isochromen-1-yl]-2-thienyl}carbonyl)pyrimidin-4-yl]amino}cyclopentyl]methyl sulfamate], for which the “Percent Inhibition” value under setting [1] worked out at 97%. Besides, the IC50 under setting [2] is below 10 nM.

For the compound `CC(O)(c1cccc(Br)c1)c1csc(C(=O)c2cncnc2N[C@@H]2C[C@H](COS(N)(=O)=O)[C@@H](O)C2)c1` (single isomer, unassigned) [I-3a, [(1R,2S,4R)-4-{[5-({4-[(1R)-1-(3-bromophenyl)-1-hydroxyethyl]-2-thienyl}carbonyl)pyrimidin-4-yl]amino}-2-hydroxycyclopentyl]methyl sulfamate or [(1R,2S,4R)-4-{[5-({4-[(1S)-1-(3-bromophenyl)-1-hydroxyethyl]-2-thienyl}carbonyl)pyrimidin-4-yl]amino}-2-hydroxycyclopentyl]methyl sulfamate], the “Percent Inhibition” value (Concentration 0.111 μM) was 92. Also, the half-inhibitory concentration (IC50) (class symbols A/B/C) lay within 10 to 100 nM.

Consider `NS(=O)(=O)OC[C@H]1C[C@@H](Nc2ncncc2C(=O)c2ccc(S(=O)(=O)c3ccccc3)o2)C[C@@H]1O` [I-239, [(1R,2S,4R)-2-Hydroxy-4-(5-[5-(phenylsulfonyl)-2-furoyl]pyrimidin-4-yl}amino)cyclopentyl]methyl sulfamate], for which, for the setting “Concentration 0.111 μM”, the “Percent Inhibition” value is on record as 14. Further, under “class symbols A/B/C”, the IC50 lay in the range of 100 to 1000 nM.

As for `Cc1sc(C(=O)c2cncnc2N[C@@H]2C[C@H](COS(N)(=O)=O)[C@@H](O)C2)cc1[C@H](N)c1cccc(Cl)c1` (single isomer, unassigned) [I-6b, [(1R,2S,4R)-4-{[5-({4-[(R)-amino(3-chlorophenyl)methyl]-5-methyl-2-thienyl}carbonyl)pyrimidin-4-yl]amino}-2-hydroxycyclopentyl]methyl sulfamate or [(1R,2S,4R)-4-{[5-({4-[(S)-amino(3-chlorophenyl)methyl]-5-methyl-2-thienyl}carbonyl)pyrimidin-4-yl]amino}-2-hydroxycyclopentyl]methyl sulfamate], under “Concentration 0.111 μM”, the “Percent Inhibition” value is on record as 98. Besides, the concentration for half-maximal inhibition (IC50) (class symbols A/B/C) is below 10 nM.

For `NS(=O)(=O)OC[C@H]1C[C@@H](Nc2ncncc2C(=O)c2cc(Cc3cccc(I)c3)cs2)C[C@@H]1O` [I-62, {(1R,2S,4R)-2-hydroxy-4-[(5-{[4-(3-iodobenzyl)-2-thienyl]carbonyl}pyrimidin-4-yl)amino]cyclopentyl}methyl sulfamate], the inhibition at 0.111 µM (Concentration 0.111 μM) turned out to be 98%.

In the case of `NS(=O)(=O)OC[C@H]1C[C@@H](Nc2ncncc2C(=O)c2cc(CN3CCn4ccnc4C3)cs2)C[C@@H]1O` [I-190, {(1R,2S,4R)-4-[(5-{[4-(5,6-dihydroimidazo[1,2-a]pyrazin-7(8H)-ylmethyl)-2-thienyl]carbonyl}pyrimidin-4-yl)amino]-2-hydroxycyclopentyl}methyl sulfamate], the inhibition at 0.111 µM (Concentration 0.111 μM) came out at 77%. Where the note is “class symbols A/B/C”, the IC50 was in the range of 10 to 100 nM.

For `CC(C)(C)OC(=O)N1CCc2ccc(Cl)cc2[C@@H]1c1cc(C(=O)c2cncnc2N[C@@H]2C[C@H](COS(N)(=O)=O)[C@@H](O)C2)sc1Cl.CC(C)(C)OC(=O)N1CCc2ccc(Cl)cc2[C@H]1c1cc(C(=O)c2cncnc2N[C@@H]2C[C@H](COS(N)(=O)=O)[C@@H](O)C2)sc1Cl` (mixture of isomers) [I-336, tert-butyl (1R)-7-chloro-1-(2-chloro-5-{[4-({(1R,3S,4R)-3-hydroxy-4-[(sulfamoyloxy)methyl]cyclopentyl}amino)pyrimidin-5-yl]carbonyl}-3-thienyl)-3,4-dihydroisoquinoline-2(1H)-carboxylate and tert-butyl (1S)-7-chloro-1-(2-chloro-5-{[4-({(1R,3S,4R)-3-hydroxy-4-[(sulfamoyloxy)methyl]cyclopentyl}amino)pyrimidin-5-yl]carbonyl}-3-thienyl)-3,4-dihydroisoquinoline-2(1H)-carboxylate], under setting [1], the “Percent Inhibition” value was 15%. Further, under setting [2], the half-inhibitory concentration (IC50) fell in the range of 100 to 1000 nM.

Turning to `NS(=O)(=O)OC[C@H]1C[C@@H](Nc2ncncc2C(=O)c2cc(CN3CCC(F)(F)C3)cs2)C[C@@H]1O` [I-228, [(1R,2S,4R)-4-{[5-({4-[(3,3-Difluoropyrrolidin-1-yl)methyl]-2-thienyl}carbonyl)pyrimidin-4-yl]amino}-2-hydroxycyclopentyl]methyl sulfamate], the inhibition at 0.111 µM (Concentration 0.111 μM) stood at 29%. In addition, for the setting “class symbols A/B/C”, the IC50 lay within 100 to 1000 nM.

In the case of `NS(=O)(=O)OC[C@H]1C[C@@H](Nc2ncncc2C(=O)c2cc([C@@H](O)c3ccccc3Cl)c(Cl)s2)C[C@@H]1O` (mixture of isomers) [I-86, [(1R,2S,4R)-4-{[5-({5-chloro-4-[(S)-(2-chlorophenyl)(hydroxy)methyl]-2-thienyl}carbonyl)pyrimidin-4-yl]amino}-2-hydroxycyclopentyl]methyl sulfamate and [(1R,2S,4R)-4-{[5-({5-chloro-4-[(R)-(2-chlorophenyl)(hydroxy)methyl]-2-thienyl}carbonyl)pyrimidin-4-yl]amino}-2-hydroxycyclopentyl]methyl sulfamate], the “Percent Inhibition” value (Concentration 0.111 μM) came to 96. Further, the IC50 (class symbols A/B/C) is below 10 nM.

In the case of `NS(=O)(=O)OC[C@H]1C[C@@H](Nc2ncncc2C(=O)c2cc([C@@H]3NCCc4ccc(Cl)cc43)c(Cl)o2)C[C@@H]1O` (single isomer, unassigned) [I-299b, {(1R,2S,4R)-4-[(5-{5-chloro-4-[(1R)-7-chloro-1,2,3,4-tetrahydroisoquinolin-1-yl]-2-furoyl}pyrimidin-4-yl)amino]-2-hydroxycyclopentyl}methyl sulfamate or {(1R,2S,4R)-4-[(5-{5-chloro-4-[(1S)-7-chloro-1,2,3,4-tetrahydroisoquinolin-1-yl]-2-furoyl}pyrimidin-4-yl)amino]-2-hydroxycyclopentyl}methyl sulfamate], the “Percent Inhibition” value under setting [1] was determined as 93%. Also, the IC50 under setting [2] is below 10 nM.

For `Cc1nc2c(s1)[C@H](c1cc(C(=O)c3cncnc3N[C@@H]3C[C@H](COS(N)(=O)=O)[C@@H](O)C3)sc1C)OCC2` (single isomer, unassigned) [I-305b, [(1R,2S,4R)-2-hydroxy-4-{[5-({5-methyl-4-[(4S)-2-methyl-6,7-dihydro-4H-pyrano[4,3-d][1,3]thiazol-4-yl]-2-thienyl}carbonyl)pyrimidin-4-yl]amino}cyclopentyl]methyl sulfamate or [(1R,2S,4R)-2-hydroxy-4-{[5-({5-methyl-4-[(4R)-2-methyl-6,7-dihydro-4H-pyrano[4,3-d][1,3]thiazol-4-yl]-2-thienyl}carbonyl)pyrimidin-4-yl]amino}cyclopentyl]methyl sulfamate], the “Percent Inhibition” value under setting [1] turned out to be 98%. Also, the IC50 under setting [2] is below 10 nM.

As to `C[C@](O)(c1csc(C(=O)c2cncnc2N[C@@H]2C[C@H](COS(N)(=O)=O)[C@@H](O)[C@H]2O)c1)c1cccc(Br)n1` (mixture of isomers) [I-1, [(1R,2R,3S,4R)-4-{[5-({4-[(1S)-1-(6-bromopyridin-2-yl)-1-hydroxyethyl]-2-thienyl}carbonyl)pyrimidin-4-yl]amino}-2,3-dihydroxycyclopentyl]methyl sulfamate and [(1R,2R,3S,4R)-4-({[5-({4-[(1R)-1-(6-bromopyridin-2-yl)-1-hydroxyethyl]-2-thienyl}carbonyl)pyrimidin-4-yl]amino}-2,3-dihydroxycyclopentyl]methyl sulfamate], the “Percent Inhibition” value (Concentration 0.111 μM) was determined as 99. For the same compound, for the setting “class symbols A/B/C”, the concentration for half-maximal inhibition (IC50) was below 10 nM.

Consider `NS(=O)(=O)OC[C@H]1C[C@@H](Nc2ncncc2C(=O)c2cc([C@@H]3NCCc4ccc(Br)cc43)c(Cl)s2)C[C@@H]1O` (single isomer, unassigned) [I-251a, [(1R,2S,4R)-4-{[5-({4-[(1R)-7-bromo-1,2,3,4-tetrahydroisoquinolin-1-yl]-5-chloro-2-thienyl}carbonyl)pyrimidin-4-yl]amino}-2-hydroxycyclopentyl]methyl sulfamate or [(1R,2S,4R)-4-{([5-({4-[(1S)-7-bromo-1,2,3,4-tetrahydroisoquinolin-1-yl]-5-chloro-2-thienyl}carbonyl)pyrimidin-4-yl]amino}-2-hydroxycyclopentyl]methyl sulfamate], for which the “Percent Inhibition” value (Concentration 0.111 μM) turned out to be 100. For the setting “class symbols A/B/C”, the IC50 is below 10 nM.

Source of the values: patent US10780090B2, “Heteroaryl compounds useful as inhibitors of SUMO activating enzyme” (Millennium Pharmaceuticals, Inc., priority 2014, dated 2020).
